Measured values as given in patent publication US8952024B2, “Herbicidal pyrimidone derivatives” (E I du Pont de Nemours and Company, priority 2009, dated 2015).

Experiments:
Assay in all cases: Test B pre-/postemergence plant response
Assay type in all cases: in vivo
[1] = test system: Surinam grass (Brachiaria decumbens)
Outline: (§1)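 Visually scored on a 0 to 100 scale after 13 to 15 days in greenhouse versus controls. Treatments were preemergence on seeded loam/sand soil and postemergence on 1- to 4-leaf plants.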

[2] = test system: blackgrass (Alopecurus myosuroides)
Outline: as §1

corn (Zea mays) = test system: corn (Zea mays)
Outline: as §1

[3] = test system: downy bromegrass (Bromus tectorum)
Outline: as §1

[4] = test system: goosegrass (Eleusine indica)
Outline: as §1

[5] = test system: green foxtail (Setaria viridis)
Outline: as §1

[6] = test system: johnsongrass (Sorghum halepense)
Outline: as §1

kochia (Kochia scoparia) = test system: kochia (Kochia scoparia)
Outline: as §1

[7] = test system: lambsquarters (Chenopodium album)
Outline: as §1

[8] = test system: large crabgrass (Digitaria sanguinalis)
Outline: as §1

[9] = test system: morningglory (Ipomoea coccinea)
Outline: as §1

[10] = test system: pigweed (Amaranthus retroflexus)
Outline: as §1

soybean (Glycine max) = test system: soybean (Glycine max)
Outline: as §1

[11] = test system: velvetleaf (Abutilon theophrasti)
Outline: as §1

wild oat (Avena fatua) = test system: wild oat (Avena fatua)
Outline: as §1

[12] = test system: woolly cupgrass (Eriochloa villosa)
Outline: as §1

[13] = test system: yellow nutsedge (Cyperus esculentus)
Outline: as §1

[14] = 31 g ai/ha, postemergence, scale 0 to 100, 0 is no effect, 100 is complete control
[15] = 62 g ai/ha, postemergence, 0 is no effect, 100 is complete control, 13 to 15 days
[16] = Postemergence, 250 g ai/ha, scale 0 to 100 (0 no effect, 100 complete control)
[17] = Postemergence, 125 g ai/ha, visual rating after 13 to 15 days, scale 0 (no effect) to 100 (complete control)
[18] = 250 g ai/ha, Preemergence, 0 to 100 scale
[19] = Postemergence, 62 g ai/ha, scale 0 (no effect) to 100 (complete control), 13 to 15 days
[20] = Preemergence, 31 g ai/ha, scale 0 to 100 (0 no effect, 100 complete control)
[21] = Preemergence, 125 g ai/ha, 0 to 100 scale
[22] = Postemergence, 250 g ai/ha, scale 0 to 100
[23] = Preemergence, 62 g ai/ha, scale 0 to 100, 0 no effect, 100 complete control

O=C1CCCC(O)=C1C(=O)c1cnc(C2CC2)n(-c2ccccc2)c1=O [Compound 87]
25: Johnsongrass plant response rating (0 to 100 scale) [6, 15]
98: Plant response rating, Goosegrass [4, 16] | Plant response rating, Lambsquarters [7, 14] | Lambsquarters plant response rating (0 to 100 scale) [7, 15] | Plant response rating, Crabgrass, Large [8, 16] | Plant response rating, Pigweed [10, 14] | Pigweed plant response rating (0 to 100 scale) [10, 15] | Plant response rating, Soybean (soybean (Glycine max); [14]) | Soybean plant response rating (0 to 100 scale) (soybean (Glycine max); [15])
20: Plant response rating, Blackgrass [2, 17] | Plant response rating, Corn (corn (Zea mays); [14]) | Plant response rating, Bromegrass, Downy [3, 14]
40: Plant response rating, Blackgrass [2, 16]
60: Plant response rating, Bromegrass, Downy [3, 17] | Oat, Wild plant response rating (0 to 100 scale) (wild oat (Avena fatua); [15]) | Nutsedge, Yellow plant response rating (0 to 100 scale) [13, 15]
100: Plant response rating, Kochia (kochia (Kochia scoparia); [14]) | Kochia plant response rating (0 to 100 scale) (kochia (Kochia scoparia); [15]) | Plant response rating, Kochia (kochia (Kochia scoparia); [16]) | Plant response rating, Lambsquarters [7, 16] | Plant response rating, Pigweed [10, 16] | Plant response rating, Soybean (soybean (Glycine max); [16]) | Plant response rating, Velvetleaf [11, 14] | Velvetleaf plant response rating (0 to 100 scale) [11, 15] | Plant response rating, Velvetleaf [11, 16]
50: Bromegrass, Downy plant response rating (0 to 100 scale) [3, 15] | Plant response rating, Oat, Wild (wild oat (Avena fatua); [14]) | Plant response rating, Cupgrass, Woolly [12, 14]
55: Corn plant response rating (0 to 100 scale) (corn (Zea mays); [15])
95: Plant response rating, Foxtail, Green [5, 16] | Plant response rating, Crabgrass, Large [8, 17]
10: Plant response rating, Nutsedge, Yellow [13, 14]
90: Plant response rating, Oat, Wild (wild oat (Avena fatua); [16]) | Plant response rating, Cupgrass, Woolly [12, 16]
5: Plant response rating, Blackgrass [2, 14] | Blackgrass plant response rating (0 to 100 scale) [2, 15] | Plant response rating, Johnsongrass [6, 14]
75: Plant response rating, Surinam Grass [1, 14] | Surinam Grass plant response rating (0 to 100 scale) [1, 15] | Plant response rating, Corn (corn (Zea mays); [17]) | Plant response rating, Corn (corn (Zea mays); [16]) | Plant response rating, Goosegrass [4, 14] | Plant response rating, Foxtail, Green [5, 14] | Cupgrass, Woolly plant response rating (0 to 100 scale) [12, 15] | Plant response rating, Cupgrass, Woolly [12, 17] | Plant response rating, Nutsedge, Yellow [13, 16]
45: Plant response rating, Johnsongrass [6, 16] | Plant response rating, Morningglory [9, 14] | Morningglory plant response rating (0 to 100 scale) [9, 15]
80: Plant response rating, Bromegrass, Downy [3, 16] | Goosegrass plant response rating (0 to 100 scale) [4, 15] | Foxtail, Green plant response rating (0 to 100 scale) [5, 15]
65: Plant response rating, Morningglory [9, 16]
85: Plant response rating, Surinam Grass [1, 16] | Plant response rating, Crabgrass, Large [8, 14] | Crabgrass, Large plant response rating (0 to 100 scale) [8, 15]

CCn1c(-c2ccccc2)ncc(C(=O)C2=C(O)CCCC2=O)c1=O [Compound 49]
75: Surinam Grass plant response rating [1, 21] | Plant response rating, Foxtail, Green [5, 17] | Plant response rating, Crabgrass, Large [8, 14] | Plant response rating, Crabgrass, Large [8, 19] | Plant response rating, Crabgrass, Large [8, 20]
95: Plant response rating, Lambsquarters [7, 20] | Plant response rating, Lambsquarters [7, 23] | Plant response rating, Crabgrass, Large [8, 23] | Plant response rating, Pigweed [10, 17] | Plant response rating, Velvetleaf [11, 19] | Plant response rating, Velvetleaf [11, 20]
20: Plant response rating, Goosegrass [4, 20] | Plant response rating, Cupgrass, Woolly [12, 18]
45: Plant response rating, Morningglory [9, 20]
80: Plant response rating, Kochia (kochia (Kochia scoparia); [17]) | Plant response rating, Lambsquarters [7, 19] | Plant response rating, Crabgrass, Large [8, 17] | Plant response rating, Morningglory [9, 19] | Plant response rating, Morningglory [9, 17] | Plant response rating, Morningglory [9, 23] | Morningglory plant response rating [9, 21] | Plant response rating, Pigweed [10, 14]
65: Plant response rating, Goosegrass [4, 14] | Plant response rating, Kochia (kochia (Kochia scoparia); [19]) | Plant response rating, Morningglory [9, 14] | Plant response rating, Soybean (soybean (Glycine max); [19]) | Plant response rating, Nutsedge, Yellow [13, 14] | Plant response rating, Nutsedge, Yellow [13, 19]
15: Plant response rating, Surinam Grass [1, 14] | Corn plant response rating (corn (Zea mays); [22])
85: Plant response rating, Surinam Grass [1, 18] | Crabgrass, Large plant response rating [8, 22] | Plant response rating, Morningglory [9, 18] | Plant response rating, Soybean (soybean (Glycine max); [18]) | Plant response rating, Soybean (soybean (Glycine max); [17]) | Soybean plant response rating (soybean (Glycine max); [21]) | Nutsedge, Yellow plant response rating [13, 21]
90: Foxtail, Green plant response rating [5, 22] | Kochia plant response rating (kochia (Kochia scoparia); [22]) | Plant response rating, Lambsquarters [7, 17] | Plant response rating, Pigweed [10, 19] | Plant response rating, Velvetleaf [11, 14] | Plant response rating, Nutsedge, Yellow [13, 18]
50: Plant response rating, Foxtail, Green [5, 14] | Plant response rating, Foxtail, Green [5, 19] | Plant response rating, Cupgrass, Woolly [12, 14] | Plant response rating, Cupgrass, Woolly [12, 19]
0: Plant response rating, Surinam Grass [1, 20] | Plant response rating, Blackgrass [2, 14] | Plant response rating, Blackgrass [2, 18] | Plant response rating, Blackgrass [2, 19] | Plant response rating, Blackgrass [2, 17] | Plant response rating, Blackgrass [2, 20] | Plant response rating, Blackgrass [2, 23] | Blackgrass plant response rating [2, 21] | Plant response rating, Corn (corn (Zea mays); [18]) | Plant response rating, Corn (corn (Zea mays); [20]) | Plant response rating, Corn (corn (Zea mays); [23]) | Corn plant response rating (corn (Zea mays); [21]) | Plant response rating, Bromegrass, Downy [3, 14] | Plant response rating, Bromegrass, Downy [3, 19] | Plant response rating, Bromegrass, Downy [3, 17] | Plant response rating, Bromegrass, Downy [3, 20] | Plant response rating, Bromegrass, Downy [3, 23] | Bromegrass, Downy plant response rating [3, 21] | Plant response rating, Foxtail, Green [5, 20] | Plant response rating, Foxtail, Green [5, 23] | Plant response rating, Johnsongrass [6, 14] | Plant response rating, Johnsongrass [6, 19] | Plant response rating, Johnsongrass [6, 20] | Plant response rating, Johnsongrass [6, 23] | Johnsongrass plant response rating [6, 21] | Plant response rating, Soybean (soybean (Glycine max); [20]) | Plant response rating, Oat, Wild (wild oat (Avena fatua); [14]) | Plant response rating, Oat, Wild (wild oat (Avena fatua); [18]) | Plant response rating, Oat, Wild (wild oat (Avena fatua); [20]) | Oat, Wild plant response rating (wild oat (Avena fatua); [21]) | Plant response rating, Cupgrass, Woolly [12, 20] | Plant response rating, Cupgrass, Woolly [12, 23] | Cupgrass, Woolly plant response rating [12, 21]
98: Goosegrass plant response rating [4, 21] | Plant response rating, Lambsquarters [7, 18] | Lambsquarters plant response rating [7, 22] | Lambsquarters plant response rating [7, 21] | Crabgrass, Large plant response rating [8, 21] | Plant response rating, Velvetleaf [11, 17]
10: Plant response rating, Johnsongrass [6, 18] | Plant response rating, Johnsongrass [6, 17] | Johnsongrass plant response rating [6, 22]
55: Plant response rating, Surinam Grass [1, 17] | Plant response rating, Kochia (kochia (Kochia scoparia); [14]) | Plant response rating, Soybean (soybean (Glycine max); [14]) | Plant response rating, Cupgrass, Woolly [12, 17] | Cupgrass, Woolly plant response rating [12, 22]
5: Plant response rating, Corn (corn (Zea mays); [14]) | Plant response rating, Corn (corn (Zea mays); [19]) | Plant response rating, Corn (corn (Zea mays); [17]) | Bromegrass, Downy plant response rating [3, 22] | Foxtail, Green plant response rating [5, 21] | Plant response rating, Oat, Wild (wild oat (Avena fatua); [19]) | Plant response rating, Oat, Wild (wild oat (Avena fatua); [17])
100: Plant response rating, Goosegrass [4, 18] | Plant response rating, Crabgrass, Large [8, 18] | Plant response rating, Pigweed [10, 18] | Plant response rating, Pigweed [10, 20] | Pigweed plant response rating [10, 21] | Plant response rating, Velvetleaf [11, 18] | Velvetleaf plant response rating [11, 21]
60: Plant response rating, Nutsedge, Yellow [13, 20]
70: Plant response rating, Goosegrass [4, 19] | Plant response rating, Goosegrass [4, 17] | Goosegrass plant response rating [4, 22] | Plant response rating, Lambsquarters [7, 14] | Plant response rating, Nutsedge, Yellow [13, 17]
30: Plant response rating, Surinam Grass [1, 19] | Blackgrass plant response rating [2, 22] | Plant response rating, Foxtail, Green [5, 18]
